Patent US20100197797A1 (priority 2009, published 2010)

System: fibromyalgia patients
Experiment: Placebo-controlled trials in fibromyalgia patients (safety)
Type: in vivo, human
Description: The stated frequencies of adverse reactions represent the proportion of individuals who experienced, at least once, a treatment-emergent adverse reaction of the type listed. A reaction was considered treatment emergent if it occurred for the first time or worsened while receiving therapy following baseline evaluation.

## CCN(CC)C(=O)C1(c2ccccc2)CC1CN.Cl (racemic) [milnacipran hydrochloride, (±)-[1R(S),2S(R)]-2-(aminomethyl)-N,N-diethyl-1-phenylcyclopropanecarboxamide hydrochloride]
100 mg/day
  patients who discontinued prematurely due to adverse reactions: 23%
  patients with increases in AST: 3%
  patients with increases in pulse≧20 bpm: 8%
  sustained increases in DBP (≧10 mmHg on 3 consecutive post-baseline visits): 13%
  sustained increases in SBP (≧15 mmHg on three consecutive post-baseline visits): 9%
100 mg/day (n = 623)
  Adverse reaction incidence: Abdominal pain: 3%
  Adverse reaction incidence: Anxiety: 5%
  Adverse reaction incidence: Blood pressure increased: 3%
  Adverse reaction incidence: Chest discomfort: 2%
  Adverse reaction incidence: Chest pain: 3%
  Adverse reaction incidence: Chills: 1%
  Adverse reaction incidence: Constipation: 16%
  Adverse reaction incidence: Decreased appetite: 1%
  Adverse reaction incidence: Dizziness: 11%
  Adverse reaction incidence: Dry mouth: 5%
  Adverse reaction incidence: Dyspnea: 2%
  Adverse reaction incidence: Flushing: 2%
  Adverse reaction incidence: Headache: 19%
  Adverse reaction incidence: Heart rate increased: 5%
  Adverse reaction incidence: Hot flush: 11%
  Adverse reaction incidence: Hyperhidrosis: 8%
  Adverse reaction incidence: Hypertension: 7%
  Adverse reaction incidence: Hypoesthesia: 1%
  Adverse reaction incidence: Insomnia: 12%
  Adverse reaction incidence: Migraine: 6%
  Adverse reaction incidence: Nausea: 35%
  Adverse reaction incidence: Palpitations: 8%
  Adverse reaction incidence: Paresthesia: 2%
  Adverse reaction incidence: Pruritus: 3%
  Adverse reaction incidence: Rash: 3%
  Adverse reaction incidence: Tachycardia: 3%
  Adverse reaction incidence: Tension headache: 2%
  Adverse reaction incidence: Tremor: 2%
  Adverse reaction incidence: Upper respiratory tract infection: 7%
  Adverse reaction incidence: Vision blurred: 1%
  Adverse reaction incidence: Vomiting: 6%
100 mg/day, one patient
  patients with increase in ALT greater than 5 times (not exceeding 10 times) the upper limit of normal: 0.2%
200 mg/day
  patients who discontinued prematurely due to adverse reactions: 26%
  patients with increases in AST: 5%
  patients with increases in pulse≧20 bpm: 8%
  sustained increases in DBP (≧10 mmHg on 3 consecutive post-baseline visits): 10%
  sustained increases in SBP (≧15 mmHg on three consecutive post-baseline visits): 6%
200 mg/day (n = 934)
  Adverse reaction incidence: Abdominal pain: 3%
  Adverse reaction incidence: Anxiety: 3%
  Adverse reaction incidence: Blood pressure increased: 3%
  Adverse reaction incidence: Chest discomfort: 1%
  Adverse reaction incidence: Chest pain: 2%
  Adverse reaction incidence: Chills: 2%
  Adverse reaction incidence: Constipation: 15%
  Adverse reaction incidence: Decreased appetite: 2%
  Adverse reaction incidence: Dizziness: 10%
  Adverse reaction incidence: Dry mouth: 5%
  Adverse reaction incidence: Dyspnea: 2%
  Adverse reaction incidence: Flushing: 3%
  Adverse reaction incidence: Headache: 17%
  Adverse reaction incidence: Heart rate increased: 6%
  Adverse reaction incidence: Hot flush: 12%
  Adverse reaction incidence: Hyperhidrosis: 9%
  Adverse reaction incidence: Hypertension: 4%
  Adverse reaction incidence: Hypoesthesia: 2%
  Adverse reaction incidence: Insomnia: 12%
  Adverse reaction incidence: Migraine: 4%
  Adverse reaction incidence: Nausea: 39%
  Adverse reaction incidence: Palpitations: 7%
  Adverse reaction incidence: Paresthesia: 3%
  Adverse reaction incidence: Pruritus: 2%
  Adverse reaction incidence: Rash: 4%
  Adverse reaction incidence: Tachycardia: 2%
  Adverse reaction incidence: Tension headache: 1%
  Adverse reaction incidence: Tremor: 2%
